In patent publication US10624866B2, “Composition for prevention or treatment of chronic pain comprising Evans blue” (THE INDUSTRY & ACADEMIC COOPERATION IN CHUNGNAM NATIONAL …, priority 2018, dated 2020):

Legend:
[1] = tested on: animal model of SNL neuropathic pain; assay: von Frey filament test (mechanical allodynia) in spinal nerve ligation (SNL) model of neuropathic pain; type: in vivo, Sprague-Dawley rats
Description: 5-week-old male SD white rats (Sprague-Dawley rats, 150 to 180 g) were purchased and were kept in an environment where each of night and day was continuously kept for 12 hours, and the temperature was maintained at 22±2° C. Further, water and feed were freely available for rats, and the rats were fed three or less per cage. At 6 weeks of age after adapted in an experimental environment for 7 days before the experiment, the rats responsive to stimulation of 8 g or more of von Frey filament were only selected, and then the spinal nerve ligation (SNL) procedure was performed thereon, inducing neuropathic pain (NPP). More specifically, after general anesthesia with respiratory anesthesia with isoflurane, the left lumbar (L6) […] was carefully removed for differentiation of the L4 and L5 spinal nerves (FIGS. 1A to 1B), and then the L5 spinal nerve was ligated with a silk suture thread (3-0), and the wound was sutured to prepare an experimental animal model of SNL neuropathic pain (FIGS. 1C to 1D). The analgesic effect of Evans blue of the present disclosure was confirmed by measuring mechanical hyperalgesia using the animal model of neuropathic pain. The von Frey filament test (test for mechanical allodynia) is a method for measuring the degree of mechanical allodynia after animal pain modeling. The rats were placed in an acrylic box disposed on a wire mesh test bench with a mesh size of 2×2 mm and adapted for at least 15 minutes. After the rats became quiet in movement, the pain threshold values (g) of the rat were evaluated using the von Frey filaments (Stoelting, USA) having a thickness of 0.4, 0.6, 1, 2, 4, 6, 8, and 15 g. […] The central part thereof was stimulated with von Frey filaments. When there was a positive reaction, stimulation was performed with weak filaments. When there was no positive reaction, stimulation was performed with strong filaments. As a result, the reduction of the pain threshold for the von Frey filament test on the seventh day after the pain model surgery was the maximum. From the seventh day when the reduction of the pain threshold for the von Frey filament test after the pain model surgery was the maximum, Evans blue (EB) was injected intrathecal injection with a Hamilton syringe, and the hind paw of the […] was stimulated with the von Frey filament to the measure minimum pain threshold. Changes in pain threshold were measured after 2 hours, 1 day, 2 days, 3 days, 5 days, and 7 days. At this time, 10 μl physiological saline was administered to the control group, and Evans blue was administered at various concentrations (5, 15, and 50 μg/10 μl).

[2] = biological target: T1, vesicular nucleotide transporter (VNUT) of the dorsal root ganglia (Rattus norvegicus, UniProt P0DX21); assay: Immunostaining with VNUT antibody after in vivo Evans blue injection, confocal microscopy; set-up: species or system white rat; conditions: dorsal root ganglia: axon, axon terminal and cell body; 2nd day after injection (FIGS. 4A to 4C)
T1 construct: examine the expression of VNUT in the dorsal root ganglia and dorsal horn of the spinal cord; from tissue; host or cells: rat dorsal root ganglia and spinal cord (L4 to L6) sections after in vivo Evans blue injection
T1 sequence (P0DX21 1-447): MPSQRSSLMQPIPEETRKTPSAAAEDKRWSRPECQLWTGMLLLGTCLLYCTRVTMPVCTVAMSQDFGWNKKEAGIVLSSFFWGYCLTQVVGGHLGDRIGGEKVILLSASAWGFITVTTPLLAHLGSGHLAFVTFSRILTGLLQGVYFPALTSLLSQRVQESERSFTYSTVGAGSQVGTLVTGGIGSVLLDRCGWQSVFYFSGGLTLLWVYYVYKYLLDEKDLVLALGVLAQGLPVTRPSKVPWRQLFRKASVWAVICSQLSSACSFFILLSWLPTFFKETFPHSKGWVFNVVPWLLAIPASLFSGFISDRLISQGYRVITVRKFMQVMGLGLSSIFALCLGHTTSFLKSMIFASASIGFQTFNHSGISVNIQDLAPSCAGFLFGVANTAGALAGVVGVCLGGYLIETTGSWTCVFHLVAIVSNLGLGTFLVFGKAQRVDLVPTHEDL
Description: To verify targeting VNUT of the dorsal root ganglia and dorsal horn of the spinal cord by Evans blue in vivo, VNUT was immune-stained, and Evans blue was administered in vivo to confirm whether it was targeted.
(§1) Specifically, it was immune-stained with VNUT antibody (green) to examine the expression of VNUT in the dorsal root ganglia and dorsal horn of the spinal cord. Evans blue was injected on the 7th day after the pain model surgery. On 2nd day after the injection of Evans blue, the white rat was anesthetized by intraperitoneal injection of sodium pentobarbital (100 mg/Kg). Then the phosphate buffer solution (PBS, pH 7.4) was intracardiac-perfused to entirely remove the blood, followed by perfusion with 4% paraformaldehyde to fix the result. Then, the spinal cord sites (L4 to L6) were carefully taken out, post-fixed in the same fixative overnight, and immersed in a 30% sucrose solution. Then, the tissues obtained by frozen sectioning of the spinal cord at […] were subjected to the normal serum blocking and then incubated overnight at 4° C. with VNUT (1:500; ABN 83; milipore) antibody. The next day, the result was washed with PBS and incubated with the cy2-conjugated secondary antibody (1:400) for 2 hours, and then the nuclear thereof was stained with DAPI. The tissues were attached to a slide glass and photographed using a confocal microscope (Leica, TCS SP8).

[3] = tested on: neurons of the dorsal horn in the spinal cord; assay: NeuN immunostaining of spinal cord tissue injected with Evans blue; type: in vivo, white rat; conditions: dorsal horn of the spinal cord (FIGS. 5A to 5C)
Description: as §1
To determine whether Evans Blue targeted the neurons of the dorsal horn in the spinal cord, the spinal cord tissue injected with Evans blue was stained with NeuN, a marker for identifying neurons. […]

[4] = tested on: excitatory neurons located in the dorsal horn of the spinal cord; assay: vGluT2 immunostaining of spinal cord tissue injected with Evans blue; type: in vivo, white rat; conditions: dorsal horn laminas I and II (FIGS. 5D to 5F)
[5] = tested on: inhibitory neurons distributed in laminas I and II; assay: Calretinin immunostaining of spinal cord tissue injected with Evans blue; type: in vivo, white rat; conditions: laminas I and II (FIG. 4G, FIGS. 5G to 5I)
[6] = tested on: microglia cells present in the dorsal horn of the spinal cord; assay: Iba-1 immunostaining of spinal cord tissue injected with Evans blue; type: in vivo, white rat; conditions: laminas I to III (FIGS. 6A to 6C)
astrocytes = assay: GFAP immunostaining of spinal cord tissue injected with Evans blue; type: in vivo, white rat; conditions: FIGS. 6D to 6F

- overlap of Evans blue signal with VNUT expression [2]: overlaps
SMILES: Cc1cc(-c2ccc(/N=N/c3ccc4c(S(=O)(=O)O)cc(S(=O)(=O)O)c(N)c4c3O)c(C)c2)ccc1/N=N/c1ccc2c(S(=O)(=O)O)cc(S(=O)(=O)O)c(N)c2c1O [Evans blue]
- intensity of pain (pain threshold) than before Evans blue treatment (0D) ([1]; 5 μg intrathecal, on the 2nd and 3rd day (p<0.05)): significant increase
- intensity of pain (pain threshold) than before Evans blue treatment (0D) ([1]; 15 μg intrathecal, after 2 hours and the 1st day (p<0.05)): significant increase
- intensity of pain (pain threshold) than before Evans blue treatment (0D) ([1]; 50 μg intrathecal, after 2 hours and the 1st day (p<0.01), the 2nd day (p<0.001), the 3rd day, the 5th day (p<0.05)): significant increase
- intensity of pain (pain threshold) compared to the control group treated with physiological saline ([1]; 50 μg intrathecal, on the 2nd day (p<0.001)): significant increase
- analgesic effect on pain (pain threshold, von Frey filament test) ([1]; SNL rats, intrathecal injection on day 7 after surgery, 5, 15 and 50 μg/10 μl, versus control group treated only with physiological saline): overall increased meaningfully
- time of peak analgesic effect ([1]; after intrathecal injection, gradually decreased thereafter): 3 days
- overlap of NeuN (neuron marker) signals with Evans blue [3]: most signals of NeuN, which is a neuron marker, overlapped
- targeting of excitatory neurons (vGluT2 stained around cell bodies of neurons targeted by Evans blue) [4]: targeted excitatory neurons
- overlap of calretinin (inhibitory neurons) with Evans blue [5]: did not overlap
- overlap of Iba-1 (microglial cell marker) signal with Evans blue signal [6]: partially overlapped
- overlap of GFAP (astrocyte marker) signal with Evans blue (astrocytes): did not overlap
